Measured values taken from patent US7727988B2, “Azabicyclo[3.1.0]hex-3-yl}alkyl)pyrimidinedione” (Glaxo Group Limited, priority 2006, dated 2010).
Where a name gives a salt, the structure may show the parent alone.

biological target: T1, dopamine D2 receptor (Homo sapiens, UniProt P14416); assay: GTPS scintillation proximity assay (GTPS-SPA), CHO_D2 membranes; type: biochemical; conditions: up to the highest concentration tested in the assay (3 μM)
T1 construct: expressed in transfected cells; host or cells: Chinese Hamster Ovary (CHO) cells, membranes
T1 sequence (P14416 whole entry): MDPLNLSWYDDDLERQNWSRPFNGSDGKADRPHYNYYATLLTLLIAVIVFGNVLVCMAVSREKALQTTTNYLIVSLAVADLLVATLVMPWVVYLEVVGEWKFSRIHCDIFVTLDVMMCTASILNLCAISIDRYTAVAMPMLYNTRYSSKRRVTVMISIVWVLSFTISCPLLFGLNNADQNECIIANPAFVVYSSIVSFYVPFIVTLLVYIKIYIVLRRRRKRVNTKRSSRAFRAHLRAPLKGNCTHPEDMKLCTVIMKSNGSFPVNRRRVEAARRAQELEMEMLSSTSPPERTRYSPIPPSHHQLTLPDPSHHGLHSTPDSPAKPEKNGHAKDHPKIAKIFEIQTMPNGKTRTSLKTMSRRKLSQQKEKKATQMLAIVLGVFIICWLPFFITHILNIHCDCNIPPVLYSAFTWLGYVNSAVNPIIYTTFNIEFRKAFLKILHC
Protocol: Functional potency of compounds of this invention can be measured by the following GTPS scintillation proximity assay (GTPS-SPA). Cells used in the study are Chinese Hamster Ovary (CHO) Cells. • Cell Line • CHO_D2 • CHO_D3 • Dopamine CHO D3 (Biocat no 1060) transduced with bacmam G0 G-protein (Biocat no 97886)
All steps are performed at 4° C. Cell membranes are prepared as follows. Cell pellets are resuspended in 10 volumes of 50 mM HEPES, 1 mM EDTA pH 7.4, using KOH. Cells are homogenised within a glass waring blender for 2 bursts of 15 secs in 200 mls of buffer (50 mM HEPES, 1 mM leupeptin, 25 μg/ml bacitracin, 1 mM EDTA, 1 mM PMSF, 2 μM Pepstatin A). (the latter 2 reagents added as fresh ×100 and ×500 stocks respectively in ethanol). The blender is plunged into ice for 5 mins after the first burst and 10-40 mins after the final burst to allow foam to dissipate. The material is then spun at 500 g for 20 mins and the supernatant spun for 36 mins at 48.000 g. The pellet is resuspended in the same buffer as above but without PMSF and Pepstatin A. The material is then forced through a 0.6 mm needle, made up to the required volume, (usually ×4 the volume of the original cell pellet), aliquoted and stored frozen at −80° C.
The final top concentration of test drug is 3 μM in the assay and 11 points serial dilution curves 1:4 in 100% DMSO are carried out using a Biomek FX. The test drug at 1% (0.5 ul) total assay volume (TAV) is added to a solid, white Greiner polypropylene 384-well assay plate. 50% TAV (25 μl) of precoupled (for 60 mins at RT) membranes, 5 μg/well, and Wheatgerm Agglutinin Polystyrene Scintillation Proximity Assay beads (RPNQ0260, Amersham), 0.25 mg/well, in 20 mM HEPES (pH 7.4, 100 mM NaCl, 10 mM MgCl2), 60 μg/mL saponin and 30 uM GDP is added. The third addition is a 20% TAV (10 ul) addition of either buffer, (agonist format) or EC80 final assay concentration of agonist, Quinelorane, prepared in assay buffer (antagonist format). The assay is started by the addition of 29% TAV (15 ul) of GTP[35S] 0.38 nM final (37 MBq/mL, 1160 Ci/mmol, Amersham). After all additions assay plates are spun down for 1 min at 1,000 rpm. The final assay cocktail ([…]) is incubated at room temperature to equilibrate for 3-6 hours before reading on a ViewLux™ (613/55 filter) luminescence imager 5 min/plate.
The effect of the test drug over the basal generates fpKi values of test drug are calculated from the IC50 generated by “antagonist format” experiment, using Cheng & Prusoff equation: fKi=IC50/1+([A]/EC50) where: [A] is the concentration of the agonist Quinelorane in the assay and EC50 is the Quinelorane EC50 value obtained in the same experiment. fpKi is defined as −logfKi. • pKi results are only estimated to be accurate to about 0.3-0.5.

Row | Structure (SMILES) | activity in the D2 GTPS-SPA assay
1 | Cc1nc(F)ccc1-c1cn(CCCN2C[C@@H]3C[C@]3(c3ccc(C(F)(F)F)cc3)C2)c(=O)[nH]c1=O.Cl.Cl [Example E36, 5-(6-fluoro-2-methyl-3-pyridinyl)-1-(3-{(1S,5R)-1-[4-(trifluoromethyl)phenyl]-3-azabicyclo[3.1.0]hex-3-yl}propyl)-2,4(1H,3H)-pyrimidinedione dihydrochloride] | no activity
2 | O=c1[nH]c(=O)n(CCCN2C[C@@H]3C[C@]3(c3ccc(C(F)(F)F)cc3)C2)cc1-c1ccc(Cl)nc1 [Example E59, 5-(6-chloro-3-pyridinyl)-1-(3-{(1S,5R)-1-[4-(trifluoromethyl)phenyl]-3-azabicyclo[3.1.0]hex-3-yl}propyl)-2,4(1H,3H)-pyrimidinedione dihydrochloride] | no activity
3 | Cc1nc(C)c(-c2cn(CCCN3C[C@@H]4C[C@]4(c4ccc(C(F)(F)F)cc4)C3)c(=O)[nH]c2=O)o1.Cl [Example E41, 5-(2,4-dimethyl-1,3-oxazol-5-yl)-1-(3-{(1S,5R)-1-[4-(trifluoromethyl)phenyl]-3-azabicyclo[3.1.0]hex-3-yl}propyl)-2,4(1H,3H)-pyrimidinedione hydrochloride] | no activity
4 | Cc1cc(-c2cn(CCCN3C[C@@H]4C[C@]4(c4ccc(C(F)(F)F)cc4)C3)c(=O)[nH]c2=O)ccn1.Cl [Example E23, 5-(2-methyl-4-pyridinyl)-1-(3-{(1S,5R)-1-[4-(trifluoromethyl)phenyl]-3-azabicyclo[3.1.0]hex-3-yl}propyl)-2,4(1H,3H)-pyrimidinedione hydrochloride] | no activity
5 | Cl.Cl.O=c1[nH]c(=O)n(CCCN2C[C@@H]3C[C@]3(c3ccc(C(F)(F)F)cc3)C2)cc1-c1ccncc1 [Example E24, 5-(4-pyridinyl)-1-(3-{(1S,5R)-1-[4-(trifluoromethyl)phenyl]-3-azabicyclo[3.1.0]hex-3-yl}propyl)-2,4(1H,3H)-pyrimidinedione dihydrocholoride] | no activity
6 | Cl.O=c1[nH]c(=O)n(CCCN2C[C@@H]3C[C@]3(c3ccc(C(F)(F)F)cc3)C2)cc1-c1cccnn1 [Example E26, 5-(3-pyridazinyl)-1-(3-{(1S,5R)-1-[4-(trifluoromethyl)phenyl]-3-azabicyclo[3.1.0]hex-3-yl}propyl)-2,4(1H,3H)-pyrimidinedione hydrochloride] | no activity
7 | Cc1nc(C)c(-c2cn(CCCCN3C[C@@H]4C[C@]4(c4ccc(C(F)(F)F)cc4)C3)c(=O)[nH]c2=O)o1.Cl [Example E42, 5-(2,4-dimethyl-1,3-oxazol-5-yl)-1-(4-{(1S,5R)-1-[4-(trifluoromethyl)phenyl]-3-azabicyclo[3.1.0]hex-3-yl}butyl)-2,4(1H,3H)-pyrimidinedione hydrochloride] | no activity
8 | Cc1cc(Cl)ccc1-c1cn(CCCN2C[C@@H]3C[C@]3(c3ccc(C(F)(F)F)cc3)C2)c(=O)[nH]c1=O [Example E53, 5-(4-chloro-2-methylphenyl)-1-(3-{(1S,5R)-1-[4-(trifluoromethyl)phenyl]-3-azabicyclo[3.1.0]hex-3-yl}propyl)-2,4(1H,3H)-pyrimidinedione] | no activity
9 | Cl.O=c1[nH]c(=O)n(CCCN2C[C@@H]3C[C@]3(c3ccc(C(F)(F)F)cc3)C2)cc1C(F)(F)F [Example E13, 5-(trifluoromethyl)-1-(3-{(1S,5R)-1-[4-(trifluoromethyl)phenyl]-3-azabicyclo[3.1.0]hex-3-yl}propyl)-2,4(1H,3H)-pyrimidinedione hydrochloride] | no activity
10 | Cl.Cl.O=c1[nH]c(=O)n(CCCN2C[C@@H]3C[C@]3(c3ccc(C(F)(F)F)cc3)C2)cc1-c1cc(F)cnc1Cl [Example E45, 5-(2-chloro-5-fluoro-3-pyridinyl)-1-(3-{(1S,5R)-1-[4-(trifluoromethyl)phenyl]-3-azabicyclo[3.1.0]hex-3-yl}propyl)-2,4(1H,3H)-pyrimidinedione dihydrochloride] | no activity
11 | Cl.O=c1[nH]c(=S)ccn1CCCCN1C[C@@H]2C[C@]2(c2ccc(C(F)(F)F)cc2)C1 [Example E33, 4-thioxo-1-(4-{(1S,5R)-1-[4-(trifluoromethyl)phenyl]-3-azabicyclo[3.1.0]hex-3-yl}butyl)-3,4-dihydro-2(1H)-pyrimidinone hydrochloride] | no activity
12 | Cl.Cl.O=c1[nH]c(=O)n(CCCN2C[C@@H]3C[C@]3(c3ccc(C(F)(F)F)cc3F)C2)cc1-c1cccnc1F [Example E48, 5-(2-fluoro-3-pyridinyl)-1-(3-{(1S,5R)-1-[2-fluoro-4-(trifluoromethyl)phenyl]-3-azabicyclo[3.1.0]hex-3-yl}propyl)-2,4(1H,3H)-pyrimidinedione dihydrochloride] | no activity
13 | Cl.N#Cc1cn(CCCCN2C[C@@H]3C[C@]3(c3ccc(C(F)(F)F)cc3)C2)c(=O)[nH]c1=O [Example E18, 2,4-dioxo-1-(4-{(1S,5R)-1-[4-(trifluoromethyl)phenyl]-3-azabicyclo[3.1.0]hex-3-yl}butyl)-1,2,3,4-tetrahydro-5-pyrimidinecarbonitrile hydrochloride] | no activity
14 | Cl.Cl.O=c1[nH]c(=O)n(CCCN2C[C@@H]3C[C@]3(c3ccc(C(F)(F)F)cc3)C2)cc1-c1ccncc1F [Example E44, 5-(3-fluoro-4-pyridinyl)-1-(3-{(1S,5R)-1-[4-(trifluoromethyl)phenyl]-3-azabicyclo[3.1.0]hex-3-yl}propyl)-2,4(1H,3H)-pyrimidinedione dihydrochloride] | no activity
15 | Cl.O=c1ccn(CCCCN2C[C@@H]3C[C@]3(c3ccc(C(F)(F)F)cc3)C2)c(=O)[nH]1 [Example E5, 1-(4-{(1S,5R)-1-[4-(trifluoromethyl)phenyl]-3-azabicyclo[3.1.0]hex-3-yl}butyl)-2,4(1H,3H)-pyrimidinedione hydrochloride] | no activity
16 | O=c1[nH]c(=O)n(CCCN2CC3C[C@]3(c3ccc(C(F)(F)F)cc3)C2)cc1-c1cccc(C(F)(F)F)n1 (stereo partly drawn) [Example E38, dihydrochloride] | no activity
17 | Cc1ncccc1-c1cn(CCCCN2C[C@@H]3C[C@]3(c3ccc(C(F)(F)F)cc3)C2)c(=O)[nH]c1=O.Cl.Cl [Example E29, 5-(2-methyl-3-pyridinyl)-1-(4-{(1S,5R)-1-[4-(trifluoromethyl)phenyl]-3-azabicyclo[3.1.0]hex-3-yl}butyl)-2,4(1H,3H)-pyrimidinedione dihydrochloride] | no activity
18 | Cc1cc(F)ccc1-c1cn(CCCN2C[C@@H]3C[C@]3(c3ccc(C(F)(F)F)cc3)C2)c(=O)[nH]c1=O [Example E51, 5-(4-fluoro-2-methylphenyl)-1-(3-{(1S,5R)-1-[4-(trifluoromethyl)phenyl]-3-azabicyclo[3.1.0]hex-3-yl}propyl)-2,4(1H,3H)-pyrimidinedione] | no activity
